Test [1] relates to A549 (human lung adenocarcinoma). Conditions: cited from earlier work.
In test [2] the test system is KB (human epidermoid carcinoma of the nasopharynx). Conditions: cited from earlier work.
In test [3] the test system is tubulin. Format: biochemical. Conditions: read-out: Inhibition of tubulin assembly IC50 (μM) ± SD.

Converted amounts (≈) assume the structure as drawn. Where only a bound is given, the exact number is not on record here.

Broadly, the IC50 is the concentration needed to halve the response being measured.

With `COc1cc2c(c(OC)c1O)-c1ccc(SC)c(=O)cc1C(NC(C)=O)CC2` (centres unmarked) [Compound 3, 2-Demethylthiocolchicine], in test [1], the “ED50 against A549” value was 0.01 µg/mL (≈ 0.0249 µM). Moreover, the “ED50 against KB” value in test [2] is 0.01 µg/mL (≈ 0.0249 µM). Regarding `CCCN([C@H]1CCc2cc(OC)c(OC)c(OC)c2-c2ccc(SC)c(=O)cc21)S(=O)(=O)c1ccccc1[N+](=O)[O-]` [Compound 13], the IC50 in test [3] is > 40 µM. As to `CN[C@H]1CCc2cc(OC)c(O)c(OC)c2-c2ccc(SC)c(=O)cc21` [Compound 15], the IC50 in test [3] is > 40 µM.

As for `CN[C@H]1CCc2cc(OC)c(OP(=O)(O)O)c(OC)c2-c2ccc(SC)c(=O)cc21` [Compound 16], the IC50 in test [3] is > 40 µM.
